Laboratory results published in ChEMBL document CHEMBL1135342, “Synthesis and evaluation of thymidine-5'-O-monophosphate analogues as inhibitors of Mycobacterium tuberculosis thymidylate kinase” (Bioorg Med Chem Lett, 2002).

These compounds were tested against T1, Thymidylate kinase (Mycobacterium tuberculosis) (UniProt P9WKE1) (assay: Enzyme Kinetic constant was determined in the presence of Mycobacterium tuberculosis thymidine monophosphate kinase).
T1 sequence (whole entry): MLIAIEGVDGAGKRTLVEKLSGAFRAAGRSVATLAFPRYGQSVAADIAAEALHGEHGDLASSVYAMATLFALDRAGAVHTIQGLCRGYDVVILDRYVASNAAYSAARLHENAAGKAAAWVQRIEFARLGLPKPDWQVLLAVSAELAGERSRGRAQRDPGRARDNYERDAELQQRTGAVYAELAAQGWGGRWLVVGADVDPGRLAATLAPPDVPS
With `O=c1[nH]c(=O)n([C@H]2C[C@H](O)[C@@H](COP(=O)(O)O)O2)cc1F` the Vm (uM min-1 (mg of protein)-1) was 4.7. `Cc1cn(-c2ccc(COP(=O)(O)O)o2)c(=O)[nH]c1=O` gave a Vm (uM min-1 (mg of protein)-1) of 0.16. `O=c1[nH]c(=O)n([C@H]2C[C@H](O)[C@@H](COP(=O)(O)O)O2)cc1I` was tested, and the Vm (uM min-1 (mg of protein)-1) was 7.5. Compound `O=c1ccn([C@H]2C[C@H](O)[C@@H](COP(=O)(O)O)O2)c(=O)[nH]1` has a Vm (uM min-1 (mg of protein)-1) of 3.5. With `O=c1[nH]c(=O)n([C@H]2C[C@H](O)[C@@H](COP(=O)(O)O)O2)cc1Br` the Vm (uM min-1 (mg of protein)-1) was 9.8. For `Cc1cn([C@H]2C[C@H](F)[C@@H](COP(=O)(O)O)O2)c(=O)[nH]c1=O`, the Vm (uM min-1 (mg of protein)-1) was 0.11. Compound `Cc1cn([C@H]2C[C@H](O)[C@@H](COP(=O)(O)O)O2)c(=O)[nH]c1=O` has a Vm (uM min-1 (mg of protein)-1) of 10.6.
